# Counter-ions that a name gives are not always drawn.
# What was measured:
# [1] = Stability test of polymorphic Form B on storage, followed by PXRD; type: physicochemical; details: for change in amount of polymorphic Form A in Form B on storage (PXRD): 2 month storage, ambient temperature, sample contains traces of Form A, Hydrochloride
# Procedure: In FIG. 1 the PXRD pattern of a stability sample experiment 1 are shown as well as PXRD pattern of Tapentadol hydrochloride in polymorphic crystal structure A and in polymorphic crystal structure B. The upper most pattern results from a sample (experiment 1) after a 4 month stability test at 27° C. and 42% RH (relative humidity). The second of top pattern results from the initial sample prior to the stability testing. […] The second last pattern represents the mono-crystal structure of pure Tapentadol Hydrochloride in polymorphic crystal Form B. The last pattern represents the mono-crystal structure of pure Tapentadol Hydrochloride in polymorphic crystal Form A.
# For Powder X-Ray Diffraction (PXRD) the samples were placed onto a Si-wafer (Bragg-Brentano) or into a standard glass capillary (Ø=0.7 mm) (Example 2). The measurements were performed at room temperature with a D8 Bruker Advance Diffractometer (Cu-Kα1=1.54059 Å, Johansson primary beam monochromator, position sensitive detector) in transmission mode with rotation of the sample.
# [2] = cited from earlier work; for stability of the crystalline form: ambient conditions, as disclosed in EP 1 612 203 A1, hydrochloride
smiles,measurement,setting,value
"CC[C@@H](c1cccc(O)c1)[C@@H](C)CN(C)C [Example 3, Tapentadol Hydrochloride]",change in amount of polymorphic Form A in Form B on storage (PXRD),[1],increase of Form A in Form B was observed
same,change in amount of polymorphic Form A in Form B on storage (PXRD),[1]; listed as experimental polymorphic Form B,amount of polymorphic Form A obviously increased
"CC[C@@H](c1cccc(O)c1)[C@@H](C)CN(C)C [Form A, Tapentadol hydrochloride]",stability of the crystalline form,[2],stable under ambient conditions
"CC[C@@H](c1cccc(O)c1)[C@@H](C)CN(C)C [Form B, Tapentadol hydrochloride]",stability of the crystalline form,[2],meta-stable only
"CC[C@@H](c1cccc(O)c1)[C@@H](C)CN(C)C [experiment 1, Tapentadol Hydrochloride]",transformation of polymorphic crystal Form B to Form A (PXRD pattern after stability test),[1]; 4 month stability test at 27° C. and 42% RH,does not show any tendency to disintegrate or to transform to polymorphic crystal Form A
same,transformation of Form B to polymorph A on storage (PXRD),"[1]; several months of storage under ambient conditions, no seeds of Form A",no transformation to polymorph A
"CC[C@@H](c1cccc(O)c1)[C@@H](C)CN(C)C [stable polymorph B, Tapentadol hydrochloride]",duration of stability of polymorphic Form B,"[2]; ambient temperatures, stabilised by low alkyl carboxylic acids or esters added during crystallization, WO 2013 111161 A1",several months

# Reference: patent publication US20170166516A1, “STABLE POLYMORPH FORM B OF TAPENTADOL HYDROCHLORIDE” (priority 2014, published 2017)
